Assay results as given in US20090081279A1, “Skin Dressings” (priority 2005, published 2009).

Legend:
moist skin = experiment: Skin reddening (dermal vasodilation) after applying dried PVA layer with pre-generated GSNO onto moist skin; type: in vivo
Excerpt: GSNO can be released from the layer simply by applying the layer onto a moist surface (e.g. wound bed). Once released, GSNO undergoes a slow decomposition to generate nitric oxide. The release of GSNO from the layer is relatively rapid.

[1] = Effect of pH on production/decomposition of GSNO in aqueous solution of potassium nitrite and L-glutathione; type: physicochemical
Description: The following reagents were prepared: • Reagent 1: Na-phosphate buffer (pH 7.4, 0.1 M) • Reagent 2: Griess reagent: 20 mg of N-(1-Naphthyl)ethylendiamine dihydrochloride (NADD)+500 mg of sulphanilamide dissolved in 2 mL of DMSO. (N.B. This solution is light sensitive and should be kept in the dark as much as possible) • Reagent 3: Mercuric chloride (10 mM) in DMSO (13.58 mg of HgCl2 in 5 mL of DMSO)
The six-step procedure set out below was then followed: • 1. Dispense 1.5 mL of Reagent 1 into a plastic cuvette • 2. Add 200 μL of the sample (i.e. sample in which GSNO concentration is to be determined) • 3. Add 1.17 mL of DI water • 4. Add 100 μL of Reagent 2 • 5. Add 30 μL of Reagent 3 and give the solution a good mix • 6. Read absorbance of the resulting mixture at 496 nm in 10 min.
The concentration of GSNO can be calculated from the absorbance reading using the molar absorption coefficient for GSNO=12,500 M^−1 cm^−1.
The rate of the GSNO production and subsequent decomposition in solutions containing potassium nitrite (5 mM) and L-glutathione (5 mM) was studied at pH 3 (citrate-phosphate buffer, 0.1 M), pH 5 (citrate-phosphate buffer, 0.1 M) and pH 7 (phosphate buffer, 0.1 M).

[2] = Stability of GSNO in dried PVA layer; type: physicochemical; conditions: in the dried layer of PVA, especially if stored in a moisture-free atmosphere
Description: In one preferred embodiment of this type, the dressing comprises a layer of dried PVA containing pre-generated S-nitrosothiol. The layer is formed from PVA, a source of nitrite (preferably potassium nitrite) and a thiol (preferably L-glutathione). In a typical example of this embodiment both of these additives are added to the PVA solution prior to the drying. S-nitrosothiol (GSNO in the preferred case) is generated within the layer during the drying step. Nitrosothiols are known to be rather unstable in aqueous solutions. Nevertheless, GSNO was found very stable in the dried layer of PVA, especially if stored in a moisture-free atmosphere.

[3] = under normal conditions; cited from earlier work
[4] = under normal conditions; cited from earlier work; remark: listed apart in the source

SMILES | Reversibility of skin reddening (moist skin; after removal of the patch) | Time to reddening of the skin due to dermal vasodilation (moist skin; dried PVA layer with pre-generated GSNO applied onto moist skin) [min] | Stability of GSNO produced ([1]; pH 5 compared with pH 3) | Initial production of GSNO ([1]; pH 5 compared with pH 3 (citrate-phosphate buffer, 0.1 M)) | Production of GSNO ([1]; pH 7 (phosphate buffer, 0.1 M), potassium nitrite 5 mM, L-glutathione 5 mM) | Stability of GSNO [2] | Time to total (100%) decomposition [3] | Maximum solubility in water [4]
N[C@@H](CCC(=O)N[C@@H](CSN=O)C(=O)NCC(=O)O)C(=O)O [GSNO, S-nitrosoglutathione] | totally reversible | ≤ 1 | slightly higher at pH 5 compared with that at pH 3 | slower at pH 5 compared with pH 3 | No production | very stable | hours/days | –
[N]=O [NO, Nitric oxide] | – | – | – | – | – | – | – | approximately 1.7 mM
